According to patent US8445430B2, “Cyclic carboxamide compounds and analogues thereof as of hepatitis C virus” (Achillion Pharmaceuticals, Inc., priority 2008, dated 2013):

Each compound was assayed on HCV replicon in Huh-7 cells (assay: HCV replicon assay (NPT ELISA) for inhibition of HCV replication). Details: Hepatitis C virus, Huh-7, 72 h, HCV replicon-containing Huh-7 cells, three days incubation.
Type: cell-based
Procedure: Compounds claimed herein are tested for the ability to inhibit viral replication of the Hepatitis C replicon in cultured cells in which the HCV replicon construct has been incorporated. The HCV replicon system was described by Bartenschlager, et. al (Science, 285, pp. 110-113 (1999)). The replicon system is predictive of in vivo anti-HCV activity; compounds that are active in humans uniformly evidence activity in the replicon assay.
In this assay HCV replicon containing cells are treated with different concentrations of the test compound to ascertain the ability of the test compound to suppress replication of the HCV replicon. As a positive control, HCV replicon-containing cells are treated with different concentrations of interferon alpha, a known inhibitor of HCV replication. The replicon assay system includes Neomycin Phosphotransferase (NPT) as a component of the replicon itself in order to detect the transcription of replicon gene products in the host cell. Cells in which the HCV replicon is actively replicating have high levels of NPT; the level of NPT is proportional to HCV replication. […] The NPT level of each sample is measured using a captured ELISA.
A protocol for testing compounds for the ability to inhibit viral replication of the Hepatitis C replicon cultured cells in which the replicon construct has been incorporated, follows.
The HCV replicon contains, 5′-3′, the HCV-IRES, the neomycin phosphotransferase (neo) gene, the IRES of encephalomyocarditis virus, which directs translation of HCV sequences NS3 to NS5B, and the 3′-NTR. The sequence of the HCV replicon has been deposited in GenBank (Accession no. AJ242652).
The replicon is transfected into Huh-7 cells using standard methods such as electroporation.
The equipment and materials include, but are not limited to, Huh-7 HCV replicon-containing cells, maintenance media (DMEM (Dulbecco's modified Eagle media) supplemented with 10% FBS, L-glutamine, non-essential amino acids, penicillin (100 units/ml), streptomycin (100 micrograms/ml), and 500 micrograms/ml of Geneticin (G418), screening media (DMEM supplemented with 10% FBS, L-glutamine, non-essential amino acids, penicillin (100 units/ml) and streptomycin (100 micrograms/ml)), 96 well tissue culture plates (flat bottom), 96 well plates (U bottom for drug dilution), Interferon alpha for positive control, fixation reagent (such as methanol:acetone), primary antibody (rabbit anti-NPTII), secondary antibody: Eu-N11, and enhancement solution.
HCV replicon-containing cells support high levels of viral RNA replicon replication when their density is suitable. Over-confluency causes decreased viral RNA replication. Therefore, cells must be kept growing in log phase in the presence of 500 micrograms/ml of G418. Generally, cells should be passed twice a week at 1: 4-6 dilution. Cell maintenance is conducted as follows:
HCV replicon-containing cells are examined under a microscope to ensure that cells growing well. Cells are rinsed once with PBS and 2 ml trypsin is added. The cell/trypsin mixture is incubated at 37° C. in a CO2 incubator for 3-5 minutes. After incubation 10 ml of complete media is added to stop the trypsinization reaction. Cells are blown gently, put into a 15 ml tube, and spun at 1200 rpm for 4 minutes. The trypsin/medium solution is removed. Medium (5 ml) is added and the cells are mixed carefully. The cells are counted.
The cells are then seeded onto 96-well plates at a density of 6000-7500 cells/100 microliters/well (6-7.5×10^5 cells/10 ml/plate). The plates are then incubated at 37° C. in a 5% CO2 incubator.
Cells are examined under a microscope approximated 24 hours after seeding and prior to adding drugs. If counting and dilution were performed correctly, cells are 60-70% confluent and nearly all cells should attach and spread evenly in the well.
HCV replicon-containing cells are rinsed with once PBS once; 2 mls of trypsin are then added. Cells are incubated at 37° C. in a 5% CO2 incubator for 3-5 minutes. […]

Question: Which EC50 does the source give for `COc1ccc2c(O[C@@H]3C[C@H]4C(=O)N[C@@]5(C(=O)NS(=O)(=O)C6CC6)C[C@@H]5/C=C\CCCC(=O)N(C)[C@@H](C(C)(C)C)C(=O)N4C3)cc(-c3ccccc3)nc2c1` [Compound 11, (2R,6S,13aR,14aS,16aS,Z)-6-tert-butyl-N-(cyclopropylsulfonyl)-2-(7-methoxy-2-phenylquinolin-4-yloxy)-7-methyl-5,8,16-trioxo-1,2,3,5,6,7,8,9,10,11,13a,14,14a,15,16,16a-hexadecahydrocyclopropa[n]pyrrolo[2,1-c] [1,4,7]triazacyclopentadecine-14a-carboxamide] here?
Answer: ≤ 10 µM

Same assay, conditions: Hepatitis C virus, Huh-7, 72 h, HCV replicon-containing Huh-7 cells, three days incubation; read-out: EC50

Question: How did the EC50 turn out when `COc1ccc2c(O[C@@H]3C[C@H]4C(=O)N[C@@]5(C(=O)NS(=O)(=O)C6CC6)C[C@@H]5/C=C\CCCC(=O)N(C)[C@@H](C(C)(C)C)C(=O)N4C3)cc(-c3ccccc3)nc2c1` [Compound 11, (2R,6S,13aR,14aS,16aS,Z)-6-tert-butyl-N-(cyclopropylsulfonyl)-2-(7-methoxy-2-phenylquinolin-4-yloxy)-7-methyl-5,8,16-trioxo-1,2,3,5,6,7,8,9,10,11,13a,14,14a,15,16,16a-hexadecahydrocyclopropa[n]pyrrolo[2,1-c] [1,4,7]triazacyclopentadecine-14a-carboxamide] was run?
Answer: > 10 µM

Question: For `COc1ccc2c(O[C@@H]3C[C@H]4C(=O)N[C@]5(C(=O)NS(=O)(=O)C6CC6)C[C@H]5/C=C\CCCC(=O)N[C@@H](C(C)(C)C)C(=O)N4C3)cc(-c3nc(C(C)C)cs3)nc2c1C` [Compound 19, (2R,6S,14aR,16aS,Z)-6-tert-butyl-N-(cyclopropylsulfonyl)-2-(2-(4-isopropyithiazol-2-yl)-7-methoxy-8-methylquinolin-4-yloxy)-5,8,16-trioxo-1,2,3,5,6,7,8,9,10,11,13a,14,14a,15,16,16a-hexadecahydrocyclopropa[n]pyrrolo[2,1-c] [1,4,7]triazacyclopentadecine-14a-carboxamide], which EC50 is on record?
Answer: 1 to 10 µM

Question: `COc1ccc2c(O[C@@H]3C[C@H]4C(=O)N[C@]5(C(=O)NS(=O)(=O)C6CC6)C[C@H]5/C=C\CCCC(=O)N(C)[C@@H](C(C)(C)C)C(=O)N4C3)cc(-c3ccccc3)nc2c1` [Compound 10, (2R,6S,13aS,14aR,16aS,Z)-6-tert-butyl-N-(cyclopropylsulfonyl)-2-(7-methoxy-2-phenylquinolin-4-yloxy)-7-methyl-5,8,16-trioxo-1,2,3,5,6,7,8,9,10,11,13a,14,14a,15,16,16a-hexadecahydrocyclopropa[n]pyrrolo[2,1-c] [1,4,7]triazacyclopentadecine-14a-carboxamide] was tested. Which EC50 did it give?
Answer: > 10 µM

Question: Which EC50 does the source give for `CCOC(=O)C12CC1/C=C\CCCC(=O)N(CCCCCC(=O)O)[C@@H](C(C)(C)C)C(=O)N1C[C@H](Oc3cc(-c4ccccc4)nc4cc(OC)ccc34)C[C@H]1C(=O)N2` (stereo partly drawn) [Compound 3, 6-((2R,6S,16aS,Z)-6-tert-butyl-14a-(ethoxycarbonyl)-2-(7-methoxy-2-phenylquinolin-4-yloxy)-5,8,16-trioxo-2,3,5,6,8,9,10,11,13a,14,14a,15,16,16a-tetradecahydrocyclopropa[n]pyrrolo[2,1-c] [1,4,7]triazacyclopentadecin-7(1H)-yl)hexanoic acid] here?
Answer: > 10 µM

Question: How did the EC50 turn out when `CCOC(=O)[C@@]12C[C@@H]1/C=C\CCCC(=O)N[C@@H](C(C)(C)C)C(=O)N1C[C@H](Oc3cc(-c4ccccc4)nc4cc(OC)ccc34)C[C@H]1C(=O)N2` [Compound 1, (2R,6S,13aR,14aR,16aS,Z)-ethyl 6-tert-butyl-2-(7-methoxy-2-phenylquinolin-4-yloxy)-5,8,16-trioxo-1,2,3,5,6,7,8,9,10,11,13a,14,14a,15,16,16a-hexadecahydrocyclopropa[n]pyrrolo[2,1-c] [1,4,7]triazacyclopentadecine-14a-carboxylate] was run?
Answer: > 10 µM

Question: With `CCOC(=O)[C@]12C[C@H]1/C=C\CCCC(=O)N[C@@H](C(C)(C)C)C(=O)N1C[C@H](Oc3cc(-c4ccccc4)nc4cc(OC)ccc34)C[C@H]1C(=O)N2` [Compound 2, (2R,6S,13aS,14aS,16aS,Z)-ethyl 6-tert-butyl-2-(7-methoxy-2-phenylquinolin-4-yloxy)-5,8,16-trioxo-1,2,3,5,6,7,8,9,10,11,13a,14,14a,15,16,16a-hexadecahydrocyclopropa[n]pyrrolo[2,1-c] [1,4,7]triazacyclopentadecine-14a-carboxylate] as the compound, how does the EC50 read?
Answer: > 10 µM
